≈ marks a conversion by molar mass, not a printed value. Some results are limits rather than exact numbers.

One experiment deals with Pasteurella multocida PM 6391 (ATCC 43137, reference strain). Put plainly: MIC, broth-microdilution (CLSI VET01-A4), strain PM 6391. The format is cell-based. The conditions noted are these: Pasteurella multocida strain PM 6391, broth-microdilution; unit assumed. A digest of the protocol:
(§1)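 Doubling dilution series in trays; visual read, MIC = lowest conc. with no visible turbidity; interpretation per CLSI VET01-S3.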
A general note: In broth dilution the organism is exposed to a series of concentrations in liquid medium.
Compound `CC(C)(O)C(NC(=O)c1ccc(C#Cc2ccc(CNCc3cccs3)cc2)cc1)C(=O)NO` (stereo not shown) [Compound 232] yielded an MIC PM 6391 of at most 0.1 mg/L.
The same measure, in the same setting: as for `CSC(C)(C)[C@H](NC(=O)c1ccc(C#Cc2ccc(CNCc3cccnc3)s2)cc1)C(=O)NO` [Compound 306], the figure is 0.4 mg/L (≈ 0.786 µM); as for `CC(=O)C(NC(=O)c1ccc(C#Cc2ccc(CNCc3ccnc(Cl)c3)cc2)cc1)C(=O)NO` (stereo not shown) [Compound 408], at most 0.1 mg/L; as for `CC(C)(O)[C@H](NC(=O)c1ccc(C#Cc2ccc(CNCc3cccnc3)nc2)cc1)C(=O)NO` [Compound 330], 0.8 mg/L (≈ 1.69 µM).

The subject of the next experiment is Mannheimia haemolytica MH 12587 (1071, BRD field isolate, macrolide-resistance: erm+, E+). In words: MIC, broth-microdilution (CLSI VET01-A4), strain MH 12587. The class given is cell-based. Particulars: Mannheimia haemolytica strain MH 12587, broth-microdilution; unit assumed. An outline of the steps:
as §1
In turn, `CC(C)(O)C(NC(=O)c1ccc(C#Cc2ccc(CNCc3cccs3)cc2)cc1)C(=O)NO` (stereo not shown) [Compound 232] gave an MIC MH 12587 of 0.4 mg/L (≈ 0.838 µM).
The same measure, in the same setting: as for `CSC(C)(C)[C@H](NC(=O)c1ccc(C#Cc2ccc(CNCc3cccnc3)s2)cc1)C(=O)NO` [Compound 306], the figure is 3.1 mg/L (≈ 6.09 µM); as for `CC(=O)C(NC(=O)c1ccc(C#Cc2ccc(CNCc3ccnc(Cl)c3)cc2)cc1)C(=O)NO` (stereo not shown) [Compound 408], 0.4 mg/L (≈ 0.815 µM).
The compound `CC(C)(O)[C@H](NC(=O)c1ccc(C#Cc2ccc(CNCc3cccnc3)nc2)cc1)C(=O)NO` [Compound 330] yielded an MIC MH 12587 of 3.1 mg/L (≈ 6.55 µM).

In another experiment the test system is Mannheimia haemolytica MH 13093 (XB0472-6014.1, BRD field isolate). In words: MIC, broth-microdilution (CLSI VET01-A4), strain MH 13093. The class given is cell-based. Particulars: Mannheimia haemolytica strain MH 13093, broth-microdilution; unit assumed. An outline of the steps:
as §1
`CC(C)(O)C(NC(=O)c1ccc(C#Cc2ccc(CNCc3cccs3)cc2)cc1)C(=O)NO` (stereo not shown) [Compound 232] yielded an MIC MH 13093 of 0.2 mg/L (≈ 0.419 µM).
Same read-out and setting: as for `CSC(C)(C)[C@H](NC(=O)c1ccc(C#Cc2ccc(CNCc3cccnc3)s2)cc1)C(=O)NO` [Compound 306], the figure is 0.8 mg/L (≈ 1.57 µM); as for `CC(=O)C(NC(=O)c1ccc(C#Cc2ccc(CNCc3ccnc(Cl)c3)cc2)cc1)C(=O)NO` (stereo not shown) [Compound 408], 1.6 mg/L (≈ 3.26 µM); as for `CC(C)(O)[C@H](NC(=O)c1ccc(C#Cc2ccc(CNCc3cccnc3)nc2)cc1)C(=O)NO` [Compound 330], 1.6 mg/L (≈ 3.38 µM).

In another experiment the test system is Mannheimia haemolytica MH 6357 (M7/2, reference strain, cattle infection strain). In words: MIC, broth-microdilution (CLSI VET01-A4), strain MH 6357. The format is cell-based. The conditions noted are these: Mannheimia haemolytica strain MH 6357, broth-microdilution; unit assumed. A digest of the protocol: as §1
`CC(C)(O)C(NC(=O)c1ccc(C#Cc2ccc(CNCc3cccs3)cc2)cc1)C(=O)NO` (stereo not shown) [Compound 232]: the MIC MH 6357 is 0.4 mg/L (≈ 0.838 µM).
The same measure, in the same setting: as for `CSC(C)(C)[C@H](NC(=O)c1ccc(C#Cc2ccc(CNCc3cccnc3)s2)cc1)C(=O)NO` [Compound 306], the figure is 0.8 mg/L (≈ 1.57 µM); as for `CC(=O)C(NC(=O)c1ccc(C#Cc2ccc(CNCc3ccnc(Cl)c3)cc2)cc1)C(=O)NO` (stereo not shown) [Compound 408], 1.6 mg/L (≈ 3.26 µM); as for `CC(C)(O)[C@H](NC(=O)c1ccc(C#Cc2ccc(CNCc3cccnc3)nc2)cc1)C(=O)NO` [Compound 330], 0.8 mg/L (≈ 1.69 µM).

The next experiment has as its system Mannheimia haemolytica MH 13065 (XB0446-6003.9, BRD field isolate). In words: MIC, broth-microdilution (CLSI VET01-A4), strain MH 13065. Particulars: Mannheimia haemolytica strain MH 13065, broth-microdilution; unit assumed. The format is cell-based. A digest of the protocol:
as §1
With `CC(C)(O)C(NC(=O)c1ccc(C#Cc2ccc(CNCc3cccs3)cc2)cc1)C(=O)NO` (stereo not shown) [Compound 232], the MIC MH 13065 is at most 0.1 mg/L.
The same measure, in the same setting: as for `CSC(C)(C)[C@H](NC(=O)c1ccc(C#Cc2ccc(CNCc3cccnc3)s2)cc1)C(=O)NO` [Compound 306], the figure is 0.8 mg/L (≈ 1.57 µM); as for `CC(=O)C(NC(=O)c1ccc(C#Cc2ccc(CNCc3ccnc(Cl)c3)cc2)cc1)C(=O)NO` (stereo not shown) [Compound 408], 1.6 mg/L (≈ 3.26 µM).
With `CC(C)(O)[C@H](NC(=O)c1ccc(C#Cc2ccc(CNCc3cccnc3)nc2)cc1)C(=O)NO` [Compound 330], the MIC MH 13065 amounted to 1.6 mg/L (≈ 3.38 µM).

The next experiment deals with Mannheimia haemolytica MH 6374 (ATCC 33396, reference strain). Put plainly: MIC, broth-microdilution (CLSI VET01-A4), strain MH 6374. The format is cell-based. Particulars: Mannheimia haemolytica strain MH 6374, broth-microdilution; unit assumed. An outline of the steps: as §1
For `CC(C)(O)C(NC(=O)c1ccc(C#Cc2ccc(CNCc3cccs3)cc2)cc1)C(=O)NO` (stereo not shown) [Compound 232], the MIC MH 6374 was at most 0.1 mg/L.
The compound `CSC(C)(C)[C@H](NC(=O)c1ccc(C#Cc2ccc(CNCc3cccnc3)s2)cc1)C(=O)NO` [Compound 306] returned an MIC MH 6374 of 0.8 mg/L (≈ 1.57 µM).
`CC(=O)C(NC(=O)c1ccc(C#Cc2ccc(CNCc3ccnc(Cl)c3)cc2)cc1)C(=O)NO` (stereo not shown) [Compound 408] registered an MIC MH 6374 of 1.6 mg/L (≈ 3.26 µM).
Still for that read-out and setting: as for `CC(C)(O)[C@H](NC(=O)c1ccc(C#Cc2ccc(CNCc3cccnc3)nc2)cc1)C(=O)NO` [Compound 330], the figure is 0.8 mg/L (≈ 1.69 µM).

A further experiment has as its system Pasteurella multocida PM 10775 (080130003051, BRD field isolate). In words: MIC, broth-microdilution (CLSI VET01-A4), strain PM 10775. The conditions noted are these: Pasteurella multocida strain PM 10775, broth-microdilution; unit assumed. The format is cell-based. An outline of the steps:
as §1
`CC(C)(O)C(NC(=O)c1ccc(C#Cc2ccc(CNCc3cccs3)cc2)cc1)C(=O)NO` (stereo not shown) [Compound 232] displayed an MIC PM 10775 of at most 0.1 mg/L.
For `CSC(C)(C)[C@H](NC(=O)c1ccc(C#Cc2ccc(CNCc3cccnc3)s2)cc1)C(=O)NO` [Compound 306], the MIC PM 10775 is at most 0.1 mg/L.
The same measure, in the same setting: as for `CC(=O)C(NC(=O)c1ccc(C#Cc2ccc(CNCc3ccnc(Cl)c3)cc2)cc1)C(=O)NO` (stereo not shown) [Compound 408], the figure is 0.8 mg/L (≈ 1.63 µM); as for `CC(C)(O)[C@H](NC(=O)c1ccc(C#Cc2ccc(CNCc3cccnc3)nc2)cc1)C(=O)NO` [Compound 330], at most 0.1 mg/L.

The next experiment has as its system Pasteurella multocida PM 12080 (IV102277-0093, BRD field isolate). Put plainly: MIC, broth-microdilution (CLSI VET01-A4), strain PM 12080. The format is cell-based. The conditions noted are these: Pasteurella multocida strain PM 12080, broth-microdilution; unit assumed. A digest of the protocol:
as §1
With `CC(C)(O)C(NC(=O)c1ccc(C#Cc2ccc(CNCc3cccs3)cc2)cc1)C(=O)NO` (stereo not shown) [Compound 232], the MIC PM 12080 is at most 0.1 mg/L.
On the same count and under the same terms, as for `CSC(C)(C)[C@H](NC(=O)c1ccc(C#Cc2ccc(CNCc3cccnc3)s2)cc1)C(=O)NO` [Compound 306], the figure is 0.4 mg/L (≈ 0.786 µM).
Still for that read-out and setting: as for `CC(=O)C(NC(=O)c1ccc(C#Cc2ccc(CNCc3ccnc(Cl)c3)cc2)cc1)C(=O)NO` (stereo not shown) [Compound 408], the figure is 0.4 mg/L (≈ 0.815 µM).
Same read-out and setting: as for `CC(C)(O)[C@H](NC(=O)c1ccc(C#Cc2ccc(CNCc3cccnc3)nc2)cc1)C(=O)NO` [Compound 330], the figure is 0.4 mg/L (≈ 0.845 µM).

Another experiment relates to Pasteurella multocida PM 6267 (P 2225 (L386), reference strain, mouse infection strain). In words: MIC, broth-microdilution (CLSI VET01-A4), strain PM 6267. The format is cell-based. The conditions noted are these: Pasteurella multocida strain PM 6267, broth-microdilution; unit assumed. An outline of the steps:
as §1
`CC(C)(O)C(NC(=O)c1ccc(C#Cc2ccc(CNCc3cccs3)cc2)cc1)C(=O)NO` (stereo not shown) [Compound 232] yielded an MIC PM 6267 of at most 0.1 mg/L.
Still for that read-out and setting: as for `CSC(C)(C)[C@H](NC(=O)c1ccc(C#Cc2ccc(CNCc3cccnc3)s2)cc1)C(=O)NO` [Compound 306], the figure is 0.8 mg/L (≈ 1.57 µM); as for `CC(=O)C(NC(=O)c1ccc(C#Cc2ccc(CNCc3ccnc(Cl)c3)cc2)cc1)C(=O)NO` (stereo not shown) [Compound 408], 6.3 mg/L (≈ 12.8 µM); as for `CC(C)(O)[C@H](NC(=O)c1ccc(C#Cc2ccc(CNCc3cccnc3)nc2)cc1)C(=O)NO` [Compound 330], 1.6 mg/L (≈ 3.38 µM).

The next experiment concerns Mannheimia haemolytica MH 10720 (154, BRD field isolate). Put plainly: MIC, broth-microdilution (CLSI VET01-A4), strain MH 10720. The format is cell-based. Particulars: Mannheimia haemolytica strain MH 10720, broth-microdilution; unit assumed. A digest of the protocol: as §1
Regarding `CC(C)(O)C(NC(=O)c1ccc(C#Cc2ccc(CNCc3cccs3)cc2)cc1)C(=O)NO` (stereo not shown) [Compound 232], the MIC MH 10720 was at most 0.1 mg/L.
Same read-out and setting: as for `CSC(C)(C)[C@H](NC(=O)c1ccc(C#Cc2ccc(CNCc3cccnc3)s2)cc1)C(=O)NO` [Compound 306], the figure is 0.2 mg/L (≈ 0.393 µM); as for `CC(=O)C(NC(=O)c1ccc(C#Cc2ccc(CNCc3ccnc(Cl)c3)cc2)cc1)C(=O)NO` (stereo not shown) [Compound 408], 1.6 mg/L (≈ 3.26 µM); as for `CC(C)(O)[C@H](NC(=O)c1ccc(C#Cc2ccc(CNCc3cccnc3)nc2)cc1)C(=O)NO` [Compound 330], 0.2 mg/L (≈ 0.422 µM).

Source of the values: patent publication US11034650B2, “Compounds useful for treating a Mannheimia haemolytica or Histophilus somni infection” (Intervet Inc., priority 2016, dated 2021).
